Here are results for three compounds from patent publication US20230414552A1, “NOVEL METHODS” (Colgate-Palmolive Company, priority 2020, published 2023).

Format in all cases: cell-based
Assay [1] has as its system PDLSCs. Briefly: BrdU analysis of PDLSC proliferation. As to conditions: ERK activator treatment of PDLSCs. An excerpt:
(§1) To examine whether ERK activator can elevate PDLSC function through Wnt signaling, five different ERK activators are used to treat PDLSCs, and BMSCs (“Bone marrow-derived mesenchymal stem/stromal cells”) serve as the control in this experiment.

The subject of assay [2] is BMSCs. As to the kind of experiment: BrdU analysis of BMSC proliferation (control cells). As to conditions: BMSCs as control cells.
Excerpt: as §1

In assay [3] the test system is Wnt/β-catenin. As to the kind of experiment: Western blot of ERK downstream signaling in PDLSCs. Conditions: PDLSCs after treatment. An excerpt:
Subsequently, ERK downstream signaling pathways involve screening using a Western blot technique. This includes screening for Shp2 signaling, Notch signaling, and Wnt signaling.
A general note: In western blotting, separated proteins are transferred to a membrane and probed.

For assay [4], the system named is PDLSCs. As to the kind of experiment: Toluidine blue staining of surviving PDLSCs after co-culture with activated T cells. The text has this:
After co-culture, toluidine blue staining allows for observation of the surviving PDLSCs that remain on the culture plates as positive staining. […] Natural ERK activators, PEITC and resveratrol, protect PDLSCs survival.

The test system of assay [5] is PDLSCs. Briefly: Western blot of osteogenic genes Runx2 and ALP in PDLSCs. Conditions: PDLSC, 1 uM PEITC or 5 uM resveratrol, osteogenic induction. As to the method:
The expression of the osteogenic genes runt-related transcription factor 2 (Runx2) and alkaline phosphatase (ALP) are also elevated in PEITC or resveratrol treated groups, assessable by Western blot. […] To examine the effect of natural compounds yellow and white curcumin extracts in GMSC and PDLSC osteogenesis, cells are treated with 5 μM yellow and white curcumin extracts under osteogenic induction. Alizarin red staining show yellow curcumin extract, but not white curcumin extract treatment elevated osteogenic differentiation, as indicated by increased mineralized nodule formation. The stained positive areas were quantified using NIH ImageJ software and shown as a percentage of the total area.

Assay [6] concerns PDLSCs. Briefly: Alizarin red staining of PDLSC osteogenesis under osteogenic induction. As to conditions: for Mineralized Area (% Total Area): control 47% ± 3.61. As for the experimental part:
To examine the effect of natural compounds PEITC and resveratrol in PDLSC osteogenesis, cells are treated with 1 uM PEITC or 5 uM resveratrol under osteogenic induction. […] The stained positive areas are then quantifiable using NIH ImageJ software and shown as a percentage of the total area. To examine the effect of natural compounds yellow and white curcumin extracts in GMSC and PDLSC osteogenesis, cells are treated with 5 μM yellow and white curcumin extracts under osteogenic induction. Alizarin red staining show yellow curcumin extract, but not white curcumin extract treatment elevated osteogenic differentiation, as indicated by increased mineralized nodule formation. The stained positive areas were quantified using NIH ImageJ software and shown as a percentage of the total area.

Assay [7] has as its system CD3+ T cells. As to the kind of experiment: PDLSC/T cell co-culture, flow cytometric analysis of apoptotic T cells. Conditions: flow cytometry. As to the method: PEITC and resveratrol are tested to determine whether they contribute to PDLSC immunomodulation. A PDLSC/T cell co-culture experiment examines the immunomodulatory properties of PDLSCs with different compounds treatment.

The test system of assay [8] is GMSC. As to the kind of experiment: BrdU incorporation assay of GMSC proliferation. Conditions: for Brdu + BMSC/Total Cells (%): control 28.1% ± 0.75.

As for `CC(C)(C)c1cc(O)ccc1O` [t-Butylhydroquinone, reference compound], the “PDLSC proliferation rate (BrdU analysis)” value in assay [1] is given as “significantly increases”. Further, the “effect on proliferation rate in BMSCs (BrdU analysis)” value (shortened to “effect on proliferation rate in BMSCs”) in assay [2] is recorded as “not observable”. For the same compound, the “Wnt/β-catenin activation (Western blot)” value in assay [3] is “highly activated”.
As for `Oc1ccc(/C=C/c2cc(O)cc(O)c2)cc1` [resveratrol, 3,5,4′-trihydroxy-trans-stilbene], in assay [4], the “PDLSC survival from activated T cell attack (toluidine blue staining)” value is on record as “protect”. In addition, in assay [5], the “expression of Runx2 (Western blot)” value is “elevated” and the “expression of alkaline phosphatase (ALP) (Western blot)” value was “elevated”. In assay [1], the “PDLSC proliferation rate (BrdU analysis)” value is “significantly increases”. Moreover, in assay [6] (5 uM resveratrol), the “osteogenic differentiation, mineralized nodule formation (Alizarin red staining)” value was “elevate”. The “Mineralized Area (% Total Area)” value in assay [6] (5 μM) is 59% ± 2.00. Further, the “PDLSC immunomodulation (AnnexinV+7AAD+ double positive apoptotic CD3+ T cells)” value in assay [7] is reported as “significantly promotes”. Also, the “GMSC cell proliferation (BrdU incorporation assay)” value in assay [8] (5 uM) is listed as “significantly elevated”. Besides, the “Brdu + BMSC/Total Cells (%)” value in assay [8] (5 μM) is recorded as 47.6% ± 3.17. Moreover, in assay [2], the “effect on proliferation rate in BMSCs” value is reported as “not observable”. Besides, the “Wnt/β-catenin activation (Western blot)” value in assay [3] is listed as “highly activated”.
On to `S=C=NCCc1ccccc1` [PEITC, Phenethyl Isothiocyanate], for which the “PDLSC survival from activated T cell attack (toluidine blue staining)” value in assay [4] was “protect”. Also, in assay [5], the “expression of Runx2 (Western blot)” value is given as “elevated” and the “expression of alkaline phosphatase (ALP) (Western blot)” value is recorded as “elevated”. Also, the “PDLSC proliferation rate (BrdU analysis)” value in assay [1] is “significantly increases”. In addition, the “osteogenic differentiation, mineralized nodule formation (Alizarin red staining)” value in assay [6] (1 uM PEITC) is recorded as “elevate”. The “Mineralized Area (% Total Area)” value in assay [6] (1 μM) is 65% ± 3.46. Also, the “PDLSC immunomodulation (AnnexinV+7AAD+ double positive apoptotic CD3+ T cells)” value in assay [7] is recorded as “significantly promotes”. In assay [8] (1 uM), the “GMSC cell proliferation (BrdU incorporation assay)” value is listed as “significantly elevated”. Moreover, the “Brdu + BMSC/Total Cells (%)” value in assay [8] (1 μM) is 48.6% ± 4.79. Also, the “effect on proliferation rate in BMSCs” value in assay [2] was “not observable”. The “Wnt/β-catenin activation (Western blot)” value in assay [3] is “highly activated”.
